Measured values taken from US20240091203A1, “METHODS FOR TREATING NON-OBSTRUCTIVE HYPERTROPHIC CARDIOMYOPATHY” (Cytokinetics, Incorporated, priority 2022, published 2024).

Columns and labels:
[1] = system: patients with symptomatic non-obstructive HCM (nHCM) or HCM with MVO; experiment: Phase 2 trial (Example 2): echocardiography (LVEF, diastolic function); type: in vivo, human
Procedure: Echocardiograms obtained on day 1 of treatment, at weeks 2, 4, 6, and 10 of treatment, and two weeks after the last dose were analyzed for several key structural and physiologic metrics; measurements of N-terminal prohormone of brain natriuretic peptide (NT-proBNP), and cardiac troponin I were also monitored. Ambulatory cardiac monitoring was conducted one week before day 1 of treatment and at week 9.
The secondary PD endpoints of the study were: Slope of the relationship of the plasma concentration of CK-3773274 to the change from baseline in the resting LVEF.
Echocardiography parameters were evaluated by the core laboratory at baseline and during treatment at the Weeks 2, 4, 6, and 10 and after a 2-week washout at Week 12 (follow-up visit).
The exploratory PD endpoints included but were not limited to: (i) The relationship of plasma concentration ranges of CK-3773274 to LVEF, LVFS, global longitudinal strain (GLS); (ii) Observed values and change from baseline in the echocardiography parameters described in Table 13 and evaluated by the core laboratory during treatment at Weeks 2, 4, 6, 10, and 12; (iii) Change in NT-proBNP from baseline to Week 10; (iv) Change in hs-cTnI from baseline to Week 10; (v) Proportion of patients with LVEF ≥50% and ≥50% reduction from baseline NT-proBNP.

[2] = Phase 1 plasma pharmacokinetics, multiple-ascending dose (MAD) cohorts; type: in vivo, human; details: for AUC24 / Cmax / Tmax: Day 1; for AUC24 / Cmax / AUCtau / Cmax, ss: geometric mean; for AUC24 / Cmax / Tmax / AUCtau / Cmax, ss / CLss/F / t1/2 / Tmax, ss: n = 6; for Tmax / Tmax, ss: median; for CLss/F / t1/2: mean ± SD
Procedure: Multiple-ascending dose (MAD) cohorts. The MAD cohorts also used a randomized, double-blind, placebo-controlled, sequential design.
Pharmacokinetic analyses. For all study groups, blood samples for PK assessment were obtained pre-dose, up to 12 times daily on day 1, and then at regular intervals throughout the study. Blood samples were collected according to the following schedule: SAD Cohorts: Day 1: pre-dose and 0.25, 0.5, 1, 1.5, 2, 2.5, 3, 4, 6, 8, 12, 16, 24, 36, 48, 72, 96, and 216 h post dose. MAD Cohorts (14-day Dosing): Day 1: pre-dose and 0.25, 0.5, 1, 1.5, 2, 2.5, 3, 4, 6, 8, and 12 h post dose; Days 2, 4, 5, 6, and 9: pre-dose (corresponding to trough samples following dosing on days 1, 3, 4, 5, and 8) and 1.5 h post dose; Days 3, 7, 8, 10, 11, 12, and 13: pre-dose (corresponding to trough samples following dosing on days 2, 6, 7, 9, 10, 11, and 12); Day 14: pre-dose and 0.25, 0.5, 1.5, 2, 2.5, 3, 4, 6, 8, 12, 16, 24, 36, 48, 72, and 168 h post dose. MAD Cohort (17-Day Dosing): Day 1: pre-dose and 0.25, 0.5, 1, 1.5, 2, 2.5, 3, 4, 6, 8, and 12 h post dose; Days 2, 4, 5, 6, and 9: pre-dose (corresponding to trough samples following dosing on days 1, 3, 4, 5, and 8) and 1.5 h post dose; Days 3, 7, 8, 10, 11, 12, 13, 14, 15, and 16: pre-dose (corresponding to trough samples following dosing on days 2, 6, 7, 9, 10, 11, and 12); Day 17: pre-dose and 0.25, 0.5, 1.5, 2, 2.5, 3, 5, 7, 9, 12, 24, 36, 48, 72, and 168 h post dose. CYPD6-PM Cohort: Day 1: pre-dose and 0.25, 0.5, 1, 1.5, 2, 2.5, 3, 4, 6, 8, 12, 16, 24, 36, 48, 72, 96, 216, 312, and 552 h post dose. Food-Effect Cohort: Day 1: pre-dose and 0.25, 0.5, 1, 1.5, 2, 2.5, 3, 4, 6, 8, 12, 16, 24, 36, 48, 72, 96, 144, and 216 h post dose. Standard non-compartmental methods were used to calculate PK parameters using Phoenix® WinNonlin® Version 7.0; actual sample collection times were utilized.
For the MAD cohort, the parameters were AUC24 and Cmax on day 1, plus AUC to the end of the dosing period (AUCtau) and Cmax on day 14 or 17. The statistical linear relationship between the In-transformed PK parameters and the In-transformed dose was verified by including the quadratic (ln Dose)^2 and cubic (ln Dose)^3 effects. […] The dose-proportionality analysis was performed using SAS® PROC MIXED.
An analysis of variance (ANOVA) model was conducted separately for each dose level; day was included as the fixed effect. Helmert contrasts were developed such that each time-point was compared with the mean of the subsequent time-points.

In the case of `CCc1nc(-c2ccc3c(c2)CC[C@H]3NC(=O)c2cnn(C)c2)no1` [aficamten, (R)—N-(5-(5-ethyl-1,2,4-oxadiazol-3-yl)-2,3-dihydro-1H-inden-1-yl)-1-methyl-1H-pyrazole-4-carboxamide], the “Doppler measures of diastolic function (lateral e′; lateral E/e′; septal E/e′)” value ([1]; baseline to week 10, second interim) is reported as “generally improved”, the “change in LVEF from baseline to Week 10” value ([1]; second interim, N = 41) is reported as −5.5% and the AUC24 ([2]; MAD 5 mg qd × 14 Days) is reported as 278 ng·h/mL. For the same compound, the Cmax ([2]; MAD 5 mg qd × 14 Days) was 28.0 ng/mL, the Tmax ([2]; MAD 5 mg qd × 14 Days) was 1.3 h and the AUCtau ([2]; MAD 5 mg qd, Day 14) was 1320 ng·h/mL. The “Cmax, ss” value ([2]; MAD 5 mg qd, Day 14) was 69.0 ng/mL, the CLss/F ([2]; MAD 5 mg qd, Day 14) was 3.9 ± 0.9 L/h and the t1/2 ([2]; MAD 5 mg qd, Day 14) was 86.4 ± 11.9 h. For the same compound, the “Tmax, ss” value ([2]; MAD 5 mg qd, Day 14) was 2.8 h, the Tmax ([2]; MAD 7.5 mg qd × 17 Days) was 0.8 h and the AUCtau ([2]; MAD 7.5 mg qd, Day 17) was 2518 ng·h/mL. The “Cmax, ss” value ([2]; MAD 7.5 mg qd, Day 17) was 147.6 ng/mL, the CLss/F ([2]; MAD 7.5 mg qd, Day 17) was 3.1 ± 0.7 L/h and the t1/2 ([2]; MAD 7.5 mg qd, Day 17) was 76.9 ± 14.5 h. For the same compound, the AUC24 ([2]; MAD 10 mg qd × 14 Days) was 547 ng·h/mL, the Cmax ([2]; MAD 10 mg qd × 14 Days) was 54.4 ng/mL and the Tmax ([2]; MAD 10 mg qd × 14 Days) was 1.0 h. The AUCtau ([2]; MAD 10 mg qd, Day 14) was 2632 ng·h/mL, the “Cmax, ss” value ([2]; MAD 10 mg qd, Day 14) was 141.2 ng/mL and the CLss/F ([2]; MAD 10 mg qd, Day 14) was 3.9 ± 0.8 L/h. For the same compound, the t1/2 ([2]; MAD 10 mg qd, Day 14) was 79.8 ± 14.1 h, the “Tmax, ss” value ([2]; MAD 10 mg qd, Day 14) was 2.5 h and the “steady state achieved by end of day” value ([2]; MAD 5-mg and 7.5-mg doses) was 12 days. The “steady state achieved by end of day” value ([2]; MAD 10-mg dose) was 10 days and the “time to steady state” value ([2]; once-daily dosing) was at most 2 weeks.
